This note sets out measurements from ChEMBL document CHEMBL1151633, “Biological Activities of Asterosaponins With Special Reference to Structure-Activity Relationships” (J Nat Prod, 1984).

Molecules are shown by their SMILES. Activity calls are given as the source filed them. No cut-off for these calls is given here.

The test system of data set [1] is Patiria pectinifera. Description: Inhibition of actin polymerization in starfish during embryogenesis.
Data set [2] relates to Hemicentrotus pulcherrimus. Put plainly: Inhibition of first cleavage in sea urchin embryo after 1.5 hrs by microscopy. It counts as functional.
Data set [3] relates to Patiria pectinifera. Put plainly: Effect on starfish embryo development assessed as abnormal embryo induction at bastula or gastula stage after 24 hrs by lactoorcein staining. The class given is functional.
Data set [4] in a line: Toxicity in sea urchin embryo assessed as inhibition of embryo development before morula stage after 24 hrs by microscopy. As to conditions: hemicentrotus pulcherrimus.
A short description of data set [5]: Toxicity in rabbit RBC assessed as hemolytic index. The conditions noted are these: erythrocyte. The class given is cell-based, Oryctolagus cuniculus.
The test system of data set [6] is Patiria pectinifera. Description: Effect on starfish embryo development assessed as occurrence of multinuclei by lactoorcein staining. It counts as functional.
Data set [7] deals with Patiria pectinifera. Put plainly: Effect on starfish embryo development assessed as incomplete cytokinesis by lactoorcein staining. It counts as functional.

As for `CC(C)CC(=O)C[C@@](C)(O)[C@H]1CC[C@H]2[C@@H]3C[C@H](OC4O[C@H](C)[C@@H](O)[C@H](OC5OC[C@@H](OC6O[C@H](CO)[C@H](O)[C@H](O)[C@H]6OC6O[C@H](C)[C@H](O)[C@H](O)[C@H]6O)[C@H](O)[C@H]5OC5O[C@H](C)[C@@H](O)[C@H](O)[C@H]5O)[C@H]4O)[C@H]4C[C@@H](OS(=O)(=O)[O-])CC[C@]4(C)C3=CC[C@@]21C.[Na+]` (some centres not stated), in the data set on Patiria pectinifera [1], the outcome was Active. Moreover, the ED50 came out at 10 µg/mL in data set [2] and 100 µg/mL in the data set with Patiria pectinifera [3]. Also, in data set [4], the LD99 was 5 µg/mL. In data set [5], the HI turned out to be 22000.
Take `CC(C)CC(=O)C[C@@](C)(O)[C@H]1CC[C@H]2[C@@H]3C[C@H](O[C@@H]4O[C@H](C)C(=O)[C@H](OC5O[C@H](C)[C@@H](OC6O[C@H](C)[C@H](O)[C@H](O)[C@H]6OC6O[C@H](C)[C@H](O)[C@H](O)[C@H]6O)[C@H](O)[C@H]5OC5O[C@H](C)[C@@H](O)[C@H](O)[C@H]5O)[C@H]4O)[C@H]4C[C@@H](OS(=O)(=O)[O-])CC[C@]4(C)C3=CC[C@@]21C.[Na+]` (some centres not stated): the outcome in the data set with Patiria pectinifera [1] was Active. Besides, the ED50 is 15 µg/mL in data set [2] and 200 µg/mL in the data set with Patiria pectinifera [3]. For the same compound, the LD99 in data set [4] stood at 5 µg/mL. Moreover, in data set [5], the HI came out at 17700.
Taken in the same sequence, the figures for `CC(=O)[C@H]1CC[C@H]2[C@@H]3C[C@H](OC4O[C@H](C)[C@@H](O)[C@H](OC5OC[C@@H](OC6O[C@H](CO)[C@H](O)[C@H](O)[C@H]6OC6O[C@H](C)[C@H](O)[C@H](O)[C@H]6O)[C@H](O)[C@H]5OC5O[C@H](C)[C@@H](O)[C@H](O)[C@H]5O)[C@H]4O)[C@H]4C[C@@H](OS(=O)(=O)[O-])CC[C@]4(C)C3=CC[C@]12C.[Na+]` (some centres not stated) were “Active”, greater than 50 µg/mL, 100 µg/mL, greater than 50 µg/mL and less than 2270.
Taken in the same sequence, the figures for `CC(C)=CC(=O)C[C@@](C)(O)[C@H]1CC[C@H]2[C@@H]3C[C@H](OC4O[C@H](C)[C@@H](O)[C@H](OC5OC[C@@H](OC6O[C@H](C)[C@@H](O)[C@H](O)[C@H]6OC6O[C@H](C)[C@H](O)[C@H](O)[C@H]6O)[C@H](O)[C@H]5OC5O[C@H](C)[C@@H](O)[C@H](O)[C@H]5O)[C@H]4O)[C@H]4C[C@@H](OS(=O)(=O)[O-])CC[C@]4(C)C3=CC[C@@]21C.[Na+]` (some centres not stated) were “Active”, 50 µg/mL, 200 µg/mL, 50 µg/mL and less than 2420.
The like results for `CC(C)CC(=O)C[C@@](C)(O)[C@H]1CC[C@H]2[C@@H]3C[C@H](OC4O[C@H](C)[C@@H](O)[C@H](OC5OC[C@@H](OC6O[C@H](CO)[C@H](O)[C@H](O)[C@H]6OC6O[C@H](C)[C@H](O)[C@H](OC7O[C@H](CO)[C@H](O)[C@H](O)[C@H]7O)[C@H]6O)[C@H](O)[C@H]5OC5O[C@H](C)[C@@H](O)[C@H](O)[C@H]5O)[C@H]4O)[C@H]4C[C@@H](OS(=O)(=O)[O-])CC[C@]4(C)C3=CC[C@@]21C.[Na+]` (some centres not stated) were, in that order, “Active”, 30 µg/mL, 200 µg/mL, 10 µg/mL and 5100.
With `CC(C)C(C)C(=O)C[C@@](C)(O)[C@H]1CC[C@H]2[C@@H]3C[C@H](OC4O[C@H](C)[C@@H](O)[C@H](OC5OC[C@@H](OC6O[C@H](CO)[C@H](O)[C@H](O)[C@H]6OC6O[C@H](C)[C@H](O)[C@H](O)[C@H]6O)[C@H](O)[C@H]5OC5O[C@H](C)[C@@H](O)[C@H](O)[C@H]5O)[C@H]4O)[C@H]4C[C@@H](OS(=O)(=O)[O-])CC[C@]4(C)C3=CC[C@@]21C.[Na+]` (some centres not stated), the result in the data set on Patiria pectinifera [6], in the data set with Patiria pectinifera [1] and in the data set with Patiria pectinifera [7] was Active. For the same compound, the values for the ED50 (in data set [2]; in the data set on Patiria pectinifera [3]) were 5 µg/mL and 50 µg/mL, respectively. Also, in data set [4], the LD99 turned out to be 2 µg/mL. The HI in data set [5] was 31400.
